From US9920013B2, “2,5-dioxoimidazolidin-1-yl-3-urea derivatives as formyl peptide modulators” (Allergan, Inc., priority 2014, dated 2018)

Target: T1, FPR2 (Homo sapiens, UniProt P25090)
T1 construct: expressed in transfected cells
T1 sequence (P25090 1-351): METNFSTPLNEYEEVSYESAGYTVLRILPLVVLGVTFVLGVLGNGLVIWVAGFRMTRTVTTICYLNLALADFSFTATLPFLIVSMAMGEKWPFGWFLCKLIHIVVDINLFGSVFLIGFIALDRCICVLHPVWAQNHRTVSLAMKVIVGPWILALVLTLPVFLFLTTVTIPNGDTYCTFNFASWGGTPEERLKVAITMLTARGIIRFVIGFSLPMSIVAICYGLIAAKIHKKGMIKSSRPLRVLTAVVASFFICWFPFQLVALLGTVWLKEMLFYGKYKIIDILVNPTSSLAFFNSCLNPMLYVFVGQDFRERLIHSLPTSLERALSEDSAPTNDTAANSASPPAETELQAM
Assay: FPR2 calcium activity assay on FLIPR Tetra in CHO-Gα16 cells stably expressing FPR2
Assay type: cell-based
Settings: for EC50: compound-induced calcium activity, 0.61 to 10,000 nM
Method: CHO-Gα16 cells stably expressing FPR2 were cultured in F12 media (10% FBS, 1% PSA, 400 μg/ml geneticin and 50 μg/ml hygromycin). In general, the day before the experiment, 18,000 cells/well were plated in a 384-well clear bottom poly-D-lysine coated plate. The following day the screening compound-induced calcium activity was assayed on a FLIPR^Tetra. The drug plates were prepared in 384-well microplates using EP3 and MultiPROBE robotic liquid handling systems. Compounds were tested at concentrations ranging from 0.61 to 10,000 nM. Results are expressed as EC50 (nM) and % efficacy values.

Row | FPR2 Gα16-CHO (%eff) | EC50 [nM] | SMILES
1 | (0.97) | 10 | CC(=O)OCCNC(=O)CC1(C(C)C)NC(=O)N(NC(=O)Nc2ccc(Br)cc2)C1=O (stereo not drawn) [Compound 3, 2-({[1-{[(4-Bromophenyl)carbamoyl]amino}-2,5-Dioxo-4-(propan-2-yl)imidazolidin-4-yl]acetyl}amino)ethyl acetate]
2 | (0.94) | 6 | CC(=O)NCCNC(=O)CC1(C(C)C)NC(=O)N(NC(=O)Nc2ccc(Br)cc2)C1=O (stereo not drawn) [Compound 1, N-[2-(Acetylamino)ethyl]-2-[1-{[(4-Bromophenyl)carbamoyl]amino}-2,5-dioxo-4-(propan-2-yl)imidazolidin-4-yl]acetamide]
3 | (0.94) | 4 | CC(=O)OCCNC(=O)CC1(C(C)C)NC(=O)N(NC(=O)Nc2ccc(Br)cc2F)C1=O (stereo not drawn) [Compound 2, 2-({[1-{[(4-Bromo-2-Fluorophenyl)carbamoyl]amino}-2,5-dioxo-4-(propan-2-yl)imidazolidin-4-yl]acetyl}amino)ethyl acetate]
